# Results reported in PubChem BioAssay AID284 (DTP/NCI, 2004).
# Where “and” joins values, the source holds several entries; their conditions need not be identical. Identical values can stand only once. Inconclusive results and toxic doses are left out. Starred links: 1 amine or outer side, 2 acyl side, 3 side chain; linkers in the order of their positions; H or OH if unused. Positions of bridges follow the written chain, without caps; N, C: chain ends. Non-standard residues stand in square brackets, D forms with d. Residues, ends and D or L forms follow the SMILES beside them. Chains are numbered I, II in the order given. Actinocin(9to1) = Cc1c2oc3c(C)ccc(C(=O)[*:1])c3nc-2c(C(=O)[*:2])c(N)c1=O; aThr = C[C@H](O)[C@H](N)C(=O)O; NMeV = CN[C@H](C(=O)O)C(C)C; Sar = CNCC(=O)O
# System: BDF1 mice, L1210/MTX-resistant leukemia ip, survival T/C
# Test: NCI In Vivo Anticancer Drug Screen. Data for tumor model L1210 Leukemia resistant to Methotrexate; NSC 740 (intraperitoneal) in B6D2F1 (BDF1) mice
# Conditions: endpoint: mean survival time, higher = longer survival
# Description: The antitumor activity of compounds was measured in mice bearing transplantable tumors. Survival or tumor size were measured and the results are expressed as the measurement made in the treated group (T) divided by the measurement made in the vehicle treated control group (C). The tumor model used in this assay is L1210 Leukemia resistant to Methotrexate; NSC 740 (intraperitoneal) in B6D2F1 (BDF1) mice
# [1] = dose: 4.0 mg/kg/injection, schedule: Q01DX Z (ip), vehicle: other
# [2] = dose: 10.0 mg/kg/injection, schedule: Q01DX010 (ip), vehicle: saline
# [3] = dose: 20.0 mg/kg/injection, schedule: Q01DX010 (ip), vehicle: saline
# [4] = dose: 40.0 mg/kg/injection, schedule: Q01DX010 (ip), vehicle: saline
# [5] = dose: 125.0 mg/kg/injection, schedule: Q01DX Z (sc), vehicle: steriod suspending solution
# [6] = dose: 250.0 mg/kg/injection, schedule: Q01DX Z (sc), vehicle: steriod suspending solution
compound,measurement,setting,value
CN(Cc1cnc2nc(N)nc(N)c2n1)c1ccc(C(=O)N[C@@H](CCC(=O)O)C(=O)O)cc1,T/C,"dose: 0.19 mg/kg/injection, schedule: Q01DX010 (ip), vehicle: other",95 % of control
same,T/C,"dose: 0.38 mg/kg/injection, schedule: Q01DX010 (ip), vehicle: other",100 % of control
same,T/C,"dose: 0.75 mg/kg/injection, schedule: Q01DX010 (ip), vehicle: other",99 % of control
same,T/C,"dose: 0.75 mg/kg/injection, schedule: Q01DX Z (ip), vehicle: alkali diluted with saline",120 % of control and 92 % of control
same,T/C,"dose: 0.75 mg/kg/injection, schedule: Q01DX Z (ip), vehicle: saline",95 % of control and 106 % of control
same,T/C,"dose: 1.5 mg/kg/injection, schedule: Q01DX010 (ip), vehicle: other",100 % of control
same,T/C,"dose: 1.5 mg/kg/injection, schedule: Q01DX Z (ip), vehicle: alkali diluted with saline",117 % of control and 92 % of control
same,T/C,"dose: 1.5 mg/kg/injection, schedule: Q01DX Z (ip), vehicle: saline",94 % of control and 100 % of control
same,T/C,"dose: 3.0 mg/kg/injection, schedule: Q01DX Z (ip), vehicle: alkali diluted with saline",97 % of control
same,T/C,"dose: 3.0 mg/kg/injection, schedule: Q01DX Z (ip), vehicle: saline",87 % of control and 99 % of control
same,T/C,[1],91 % of control and 95 % of control
"Cc1c2oc3c(C)ccc(C(=O)N[C@@H]4C(=O)N[C@H](C(C)C)C(=O)N5CCC[C@H]5C(=O)N(C)CC(=O)N(C)[C@@H](C(C)C)C(=O)O[C@H]4C)c3nc-2c(C(=O)N[C@@H]2C(=O)N[C@H](C(C)C)C(=O)N3CCC[C@H]3C(=O)N(C)CC(=O)N(C)[C@@H](C(C)C)C(=O)O[C@H]2C)c(N)c1=O (I: [aThr][dV]P[Sar][NMeV] / II: [aThr][dV]P[Sar][NMeV]; ester I:1-I:C, II:1-II:C; linker I:N-II:N via Actinocin(9to1))",T/C,"dose: 12.0 micrograms/kg/injection, schedule: Q01DX Z (ip), vehicle: saline",157 % of control
same,T/C,"dose: 12.5 micrograms/kg/injection, schedule: Q01DX Z (ip), vehicle: saline",103 % of control
same,T/C,"dose: 32.0 micrograms/kg/injection, schedule: Q01DX Z (ip), vehicle: saline",92 % of control and 104 % of control
same,T/C,"dose: 50.0 micrograms/kg/injection, schedule: Q01DX Z (ip), vehicle: saline",114 % of control and 117 % of control
same,T/C,"dose: 63.0 micrograms/kg/injection, schedule: Q01DX Z (ip), vehicle: saline",98 % of control and 104 % of control
same,T/C,"dose: 125.0 micrograms/kg/injection, schedule: Q01DX Z (ip), vehicle: saline",117 % of control and 101 % of control
CC1CCOS(=O)O1 (centres undefined),T/C,[2],100 % of control
same,T/C,[3],100 % of control
same,T/C,[4],90 % of control
O=C(Nc1ccc(C2=NCCN2)cc1)c1cccc(C(=O)Nc2ccc(C3=NCCN3)cc2)c1,T/C,"dose: 8.0 mg/kg/injection, schedule: Q01DX010 (ip), vehicle: saline",177 % of control and 209 % of control
same,T/C,"dose: 12.5 mg/kg/injection, schedule: Q01DX Z (ip), vehicle: methylcellulose (MC)",122 % of control
same,T/C,"dose: 16.0 mg/kg/injection, schedule: Q01DX010 (ip), vehicle: saline",211 % of control and 247 % of control
same,T/C,"dose: 32.0 mg/kg/injection, schedule: Q01DX010 (ip), vehicle: saline",225 % of control and 256 % of control
same,T/C,"dose: 50.0 mg/kg/injection, schedule: Q01DX Z (ip), vehicle: methylcellulose (MC)",95 % of control
same,T/C,"dose: 64.0 mg/kg/injection, schedule: Q01DX010 (ip), vehicle: saline",235 % of control and 250 % of control
Nc1nc(N)c2nc(CNc3ccc(C(=O)NC(CCC(=O)O)C(=O)O)cc3)cnc2n1 (centres undefined),T/C,"dose: 0.05 mg/kg/injection, schedule: Q01DX010 (ip), vehicle: other",90 % of control
same,T/C,"dose: 0.1 mg/kg/injection, schedule: Q01DX010 (ip), vehicle: other",102 % of control and 103 % of control
same,T/C,"dose: 0.2 mg/kg/injection, schedule: Q01DX010 (ip), vehicle: other",92 % of control and 104 % of control
same,T/C,"dose: 0.4 mg/kg/injection, schedule: Q01DX010 (ip), vehicle: other",89 % of control
C[C@@H]1C[C@@H]([C@H](O)CC2CC(=O)NC(=O)C2)C(=O)[C@@H](C)C1,T/C,"dose: 5.0 mg/kg/injection, schedule: Q01DX010 (ip), vehicle: saline",90 % of control and 105 % of control
same,T/C,"dose: 7.5 mg/kg/injection, schedule: Q01DX Z (ip), vehicle: carboxymethylcellulose (CMC)",112 % of control and 96 % of control
same,T/C,[2],103 % of control
same,T/C,"dose: 15.0 mg/kg/injection, schedule: Q01DX Z (ip), vehicle: carboxymethylcellulose (CMC)",92 % of control and 108 % of control
same,T/C,[3],97 % of control
same,T/C,"dose: 30.0 mg/kg/injection, schedule: Q01DX Z (ip), vehicle: carboxymethylcellulose (CMC)",114 % of control
same,T/C,[4],95 % of control and 97 % of control
Clc1ccc(C(c2ccccc2Cl)C(Cl)Cl)cc1 (centres undefined),T/C,"dose: 62.5 mg/kg/injection, schedule: Q01DX Z (sc), vehicle: steriod suspending solution",105 % of control
same,T/C,[5],99 % of control
same,T/C,[6],107 % of control
same,T/C,"dose: 500.0 mg/kg/injection, schedule: Q01DX Z (sc), vehicle: steriod suspending solution",110 % of control
CN(C)c1nc(N(C)C)nc(N(C)C)n1,T/C,"dose: 0.5 mg/kg/injection, schedule: Q01DX Z (ip), vehicle: other",93 % of control
same,T/C,"dose: 1.0 mg/kg/injection, schedule: Q01DX Z (ip), vehicle: other",103 % of control
same,T/C,[1],109 % of control
same,T/C,"dose: 18.8 mg/kg/injection, schedule: Q01DX010 (ip), vehicle: saline",109 % of control
same,T/C,"dose: 37.5 mg/kg/injection, schedule: Q01DX010 (ip), vehicle: saline",105 % of control
same,T/C,"dose: 75.0 mg/kg/injection, schedule: Q01DX010 (ip), vehicle: saline",93 % of control
same,T/C,"dose: 87.5 mg/kg/injection, schedule: Q01DX Z (ip), vehicle: other",101 % of control
same,T/C,"dose: 150.0 mg/kg/injection, schedule: Q01DX010 (ip), vehicle: saline",104 % of control
same,T/C,"dose: 175.0 mg/kg/injection, schedule: Q01DX Z (ip), vehicle: other",94 % of control
C[C@]12C=CC(=O)C=C1CC[C@@H]1[C@@H]2C(=O)C[C@@]2(C)[C@H]1CC[C@]2(O)C(=O)CO,T/C,"dose: 25.0 mg/kg/injection, schedule: Q01DX010 (sc), vehicle: steriod suspending solution",90 % of control
CSc1ncnc2c1ncn2C1OC(CO)C(O)C1O (centres undefined),T/C,"dose: 0.5 mg/kg/injection, schedule: Q01DX Z (ip), vehicle: saline",102 % of control
same,T/C,"dose: 1.0 mg/kg/injection, schedule: Q01DX Z (ip), vehicle: saline",99 % of control
same,T/C,"dose: 2.0 mg/kg/injection, schedule: Q01DX Z (ip), vehicle: saline",105 % of control
same,T/C,"dose: 4.0 mg/kg/injection, schedule: Q01DX Z (ip), vehicle: saline",112 % of control
same,T/C,"dose: 6.25 mg/kg/injection, schedule: Q01DX Z (ip), vehicle: saline",97 % of control
same,T/C,[2],107 % of control
same,T/C,"dose: 12.5 mg/kg/injection, schedule: Q01DX010 (ip), vehicle: saline",109 % of control
same,T/C,"dose: 12.5 mg/kg/injection, schedule: Q01DX Z (ip), vehicle: saline",93 % of control
same,T/C,"dose: 15.0 mg/kg/injection, schedule: Q01DX010 (ip), vehicle: saline",106 % of control
same,T/C,[3],102 % of control
CCC(=O)O[C@H]1CC[C@H]2[C@@H]3CCC4=CC(=O)CC[C@]4(C)[C@H]3CC[C@]12C,T/C,[5],100 % of control and 102 % of control
same,T/C,[6],102 % of control
same,T/C,"dose: 1000.0 mg/kg/injection, schedule: Q01DX Z (sc), vehicle: steriod suspending solution",86 % of control and 89 % of control
Cn1cnc([N+](=O)[O-])c1Sc1nc(N)nc2nc[nH]c12,T/C,"dose: 1.0 mg/kg/injection, schedule: Q01DX Z (ip), vehicle: methylcellulose (MC)",92 % of control
same,T/C,"dose: 2.0 mg/kg/injection, schedule: Q01DX Z (ip), vehicle: methylcellulose (MC)",96 % of control
same,T/C,"dose: 4.0 mg/kg/injection, schedule: Q01DX Z (ip), vehicle: methylcellulose (MC)",109 % of control
C=CC(CN1CC1)OC(C)=O (centres undefined),T/C,"dose: 1.25 mg/kg/injection, schedule: Q01DX Z (ip), vehicle: saline",119 % of control
same,T/C,"dose: 2.0 mg/kg/injection, schedule: Q01DX010 (ip), vehicle: saline",123 % of control
same,T/C,"dose: 2.5 mg/kg/injection, schedule: Q01DX Z (ip), vehicle: saline",107 % of control
same,T/C,"dose: 5.0 mg/kg/injection, schedule: Q01DX Z (ip), vehicle: saline",102 % of control
O=c1[nH]cc(F)c(=O)[nH]1,T/C,"dose: 25.0 mg/kg/injection, schedule: Q01DX Z (ip), vehicle: saline",92 % of control and 101 % of control
same,T/C,"dose: 50.0 mg/kg/injection, schedule: Q01DX Z (ip), vehicle: saline",87 % of control and 93 % of control and 98 % of control
Oc1cc(CN(CCCl)CCCl)c(O)cc1CN(CCCl)CCCl,T/C,"dose: 0.25 mg/kg/injection, schedule: Q01DX Z (ip), vehicle: carboxymethylcellulose (CMC)",96 % of control
same,T/C,"dose: 0.37 mg/kg/injection, schedule: Q01DX Z (ip), vehicle: carboxymethylcellulose (CMC)",110 % of control
same,T/C,"dose: 0.5 mg/kg/injection, schedule: Q01DX Z (ip), vehicle: carboxymethylcellulose (CMC)",88 % of control
same,T/C,"dose: 0.75 mg/kg/injection, schedule: Q01DX Z (ip), vehicle: carboxymethylcellulose (CMC)",97 % of control
same,T/C,"dose: 1.0 mg/kg/injection, schedule: Q01DX Z (ip), vehicle: carboxymethylcellulose (CMC)",86 % of control
same,T/C,"dose: 2.0 mg/kg/injection, schedule: Q01DX Z (ip), vehicle: carboxymethylcellulose (CMC)",88 % of control
